Results taken from PubChem BioAssay AID248 (DTP/NCI, 2004).
Inconclusive results and toxic doses are left out. No stated cut-off is given here; in the data, active means T/C of 150% or more; inactive means T/C below 125%.

System: L1210 leukemia ip in BDF1 mice, survival T/C
Experiment: NCI In Vivo Anticancer Drug Screen. Data for tumor model L1210 Leukemia (intraperitoneal) in B6D2F1 (BDF1) mice
Settings: endpoint: mean survival time, higher = longer survival
Method in brief: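 In this screen, tumor-bearing mice given compound are compared to those given vehicle, and their survival values are reported as a treated-to-control quotient.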

[1] = dose: 100.0 mg/kg/injection, schedule: Q01DX009 (ip), vehicle: saline
[2] = dose: 200.0 mg/kg/injection, schedule: Q01DX009 (ip), vehicle: saline
[3] = dose: 100.0 mg/kg/injection, schedule: Q04DX003 (ip), vehicle: Klucel (hydroxypropylcellulose) (HPC)
[4] = dose: 200.0 mg/kg/injection, schedule: Q04DX003 (ip), vehicle: Klucel (hydroxypropylcellulose) (HPC)
[5] = dose: 400.0 mg/kg/injection, schedule: Q04DX003 (ip), vehicle: Klucel (hydroxypropylcellulose) (HPC)
[6] = dose: 100.0 mg/kg/injection, schedule: Q01DX009 (ip), vehicle: saline with Tween-80
[7] = dose: 100.0 mg/kg/injection, schedule: Q04DX002 (ip), vehicle: saline with Tween-80
[8] = dose: 100.0 mg/kg/injection, schedule: Q04DX003 (ip), vehicle: saline with Tween-80
[9] = dose: 200.0 mg/kg/injection, schedule: Q04DX003 (ip), vehicle: saline with Tween-80
[10] = dose: 400.0 mg/kg/injection, schedule: Q04DX003 (ip), vehicle: saline with Tween-80
[11] = dose: 100.0 mg/kg/injection, schedule: Q01DX009 (ip), vehicle: Klucel (hydroxypropylcellulose) (HPC)
[12] = dose: 200.0 mg/kg/injection, schedule: Q01DX009 (ip), vehicle: Klucel (hydroxypropylcellulose) (HPC)
[13] = dose: 400.0 mg/kg/injection, schedule: Q01DX009 (ip), vehicle: Klucel (hydroxypropylcellulose) (HPC)

Measured: T/C

CS(=O)(=O)OCC(O)C(O)C(O)C(O)COS(C)(=O)=O (stereo unspecified)
inactive: dose: 100.0 mg/kg/injection, schedule: Q01DX001 (ip), vehicle: carboxymethylcellulose (CMC) 98 % of control | dose: 200.0 mg/kg/injection, schedule: Q01DX001 (ip), vehicle: carboxymethylcellulose (CMC) 92 % of control | dose: 400.0 mg/kg/injection, schedule: Q01DX001 (ip), vehicle: carboxymethylcellulose (CMC) 103 % of control

COC(=O)C1CC2CCC1O2 (stereo unspecified)
inactive: dose: 100.0 mg/kg/injection, schedule: Q01DX009 (ip), vehicle: carboxymethylcellulose (CMC) 100 % of control | dose: 200.0 mg/kg/injection, schedule: Q01DX009 (ip), vehicle: carboxymethylcellulose (CMC) 98 % of control | dose: 400.0 mg/kg/injection, schedule: Q01DX009 (ip), vehicle: carboxymethylcellulose (CMC) 94 % of control

Cc1ccc[nH]c1=O
inactive: dose: 50.0 mg/kg/injection, schedule: Q01DX009 (ip), vehicle: saline 95 % of control | [1] 93 % of control | dose: 100.0 mg/kg/injection, schedule: Q04DX003 (ip), vehicle: saline 107 % of control | [2] 91 % of control | dose: 200.0 mg/kg/injection, schedule: Q04DX003 (ip), vehicle: saline 109 % of control

CC(=O)OC1CCC2(C)C(=CCC3C2CCC2(C)C3CC3C(c4ccccc4)=NN(c4ccccc4)C32C(=O)c2ccccc2)C1 (stereo unspecified)
inactive: dose: 25.0 mg/kg/injection, schedule: Q04DX002 (ip), vehicle: Klucel (hydroxypropylcellulose) (HPC) 104 % of control | dose: 50.0 mg/kg/injection, schedule: Q04DX002 (ip), vehicle: Klucel (hydroxypropylcellulose) (HPC) 93 % of control | dose: 100.0 mg/kg/injection, schedule: Q04DX002 (ip), vehicle: Klucel (hydroxypropylcellulose) (HPC) 111 % of control

Cc1nn(C2CC(O)C(O)C(CO)O2)c(=O)[nH]c1=O (stereo unspecified)
inactive: dose: 50.0 mg/kg/injection, schedule: Q01DX001 (ip), vehicle: saline 93 % of control | dose: 100.0 mg/kg/injection, schedule: Q01DX001 (ip), vehicle: saline 96 % of control | [1] 92 % of control | dose: 200.0 mg/kg/injection, schedule: Q01DX001 (ip), vehicle: saline 104 % of control | [2] 95 % of control | dose: 400.0 mg/kg/injection, schedule: Q01DX001 (ip), vehicle: saline 98 % of control | dose: 400.0 mg/kg/injection, schedule: Q01DX009 (ip), vehicle: saline 98 % of control

CCCCCCCCCCCCCCCCN(C)/C(=N\NS(=O)(=O)c1cccc([N+](=O)[O-])c1)c1ccc(OC)c(OC)c1
inactive: [3] 93 % of control | [4] 95 % of control | [5] 93 % of control

CCCC(CN(C)C)C(=O)c1ccccc1 (stereo unspecified)
inactive: dose: 25.0 mg/kg/injection, schedule: Q01DX009 (ip), vehicle: saline with Tween-80 93 % of control | dose: 25.0 mg/kg/injection, schedule: Q04DX002 (ip), vehicle: saline with Tween-80 100 % of control | dose: 50.0 mg/kg/injection, schedule: Q01DX009 (ip), vehicle: saline with Tween-80 89 % of control | dose: 50.0 mg/kg/injection, schedule: Q04DX002 (ip), vehicle: saline with Tween-80 93 % of control | [6] 96 % of control | [7] 93 % of control

CC1(C)N=C(N)N=C(N)N1c1cccc(CCCCc2cccc(NC(=O)CBr)c2)c1
inactive: dose: 5.0 mg/kg/injection, schedule: Q01DX001 (ip), vehicle: saline 102 % of control | dose: 10.0 mg/kg/injection, schedule: Q01DX001 (ip), vehicle: saline 98 % of control | dose: 20.0 mg/kg/injection, schedule: Q01DX001 (ip), vehicle: saline 98 % of control | dose: 40.0 mg/kg/injection, schedule: Q01DX001 (ip), vehicle: saline 112 % of control

O=S(=O)(O)C(Nc1ccccc1)c1ccccc1 (stereo unspecified)
inactive: [6] 100 % of control | [8] 97 % of control | dose: 150.0 mg/kg/injection, schedule: Q01DX001 (ip), vehicle: water 96 % of control | dose: 162.0 mg/kg/injection, schedule: Q01DX Z (ip), vehicle: carboxymethylcellulose (CMC) 95 % of control | dose: 200.0 mg/kg/injection, schedule: Q01DX009 (ip), vehicle: saline with Tween-80 96 % of control | [9] 101 % of control | dose: 300.0 mg/kg/injection, schedule: Q01DX001 (ip), vehicle: water 100 % of control | dose: 324.0 mg/kg/injection, schedule: Q01DX Z (ip), vehicle: carboxymethylcellulose (CMC) 94 % of control | dose: 400.0 mg/kg/injection, schedule: Q01DX009 (ip), vehicle: saline with Tween-80 101 % of control | dose: 400.0 mg/kg/injection, schedule: Q01DX015 (ip), vehicle: water 119 % of control | [10] 93 % of control | dose: 600.0 mg/kg/injection, schedule: Q01DX001 (ip), vehicle: water 96 % of control | dose: 600.0 mg/kg/injection, schedule: Q01DX015 (ip), vehicle: water 104 % of control | dose: 1200.0 mg/kg/injection, schedule: Q01DX001 (ip), vehicle: water 116 % of control

COC(=O)CNc1ccc(S(=O)(=O)c2ccc(N)cc2)cc1
inactive: [11] 107 % of control | [3] 97 % of control | [12] 92 % of control | [4] 101 % of control | [13] 88 % of control | [5] 97 % of control

C(/C=N/N(c1ccccc1)c1ccccc1)=N\N(c1ccccc1)c1ccccc1
inactive: [11] 97 % of control | [3] 101 % of control | [12] 92 % of control | [4] 106 % of control | [13] 95 % of control | [5] 93 % of control

CC(C)OC(=O)C1(N)CCCC1
inactive: dose: 25.0 mg/kg/injection, schedule: Q01DX Z (ip), vehicle: carboxymethylcellulose (CMC) 105 % of control | dose: 30.0 mg/kg/injection, schedule: Q01DX Z (ip), vehicle: saline 113 % of control | dose: 40.0 mg/kg/injection, schedule: Q01DX Z (ip), vehicle: other 119 % of control | dose: 45.0 mg/kg/injection, schedule: Q01DX Z (ip), vehicle: saline 118 % of control | dose: 50.0 mg/kg/injection, schedule: Q01DX Z (ip), vehicle: carboxymethylcellulose (CMC) 122 % of control | dose: 150.0 mg/kg/injection, schedule: Q01DX Z (ip), vehicle: saline 89 % of control | dose: 200.0 mg/kg/injection, schedule: Q01DX Z (ip), vehicle: carboxymethylcellulose (CMC) 88 % of control

CCc1cccc[n+]1CC(=O)c1ccc(-c2ccccc2)cc1
inactive: [3] 86 % of control

Cn1c(CC(O)(C(F)(F)F)C(F)(F)F)c(C(O)(C(F)(F)F)C(F)(F)F)c2ccccc21
inactive: dose: 5.0 mg/kg/injection, schedule: Q01DX009 (ip), vehicle: saline with Tween-80 100 % of control | dose: 10.0 mg/kg/injection, schedule: Q01DX009 (ip), vehicle: saline with Tween-80 94 % of control

OC1(C#CC2(O)CCCCC2)CCCCC1
inactive: dose: 50.0 mg/kg/injection, schedule: Q01DX009 (ip), vehicle: Klucel (hydroxypropylcellulose) (HPC) 98 % of control | [11] 89 % of control | [3] 98 % of control | [12] 102 % of control | [4] 90 % of control

O=S(=O)(c1ccc(N=NN2CCOCC2)cc1)N(CCCl)CCCl
inactive: [7] 108 % of control | dose: 200.0 mg/kg/injection, schedule: Q04DX002 (ip), vehicle: saline with Tween-80 115 % of control | dose: 400.0 mg/kg/injection, schedule: Q04DX002 (ip), vehicle: saline with Tween-80 115 % of control

COc1ccc(NC(=O)N2CCOCC2)cc1OC
inactive: [8] 102 % of control | [9] 96 % of control | [10] 89 % of control
